What was measured:
STING signalling pathway = assay: Interferon-β promoter SEAP reporter assay in THP1-Blue cells; format: cell-based, human; settings: 0, 10, 20, 40 μg/ml, 24 hours
Protocol: Legend for Synthesis 4: THP1-Blue™ cells ((THP1-ISG); InvivoGen, catalogue number: thp-isg; concentration: 5×10^5/ml, 180 μl/well (96-well-plate) were incubated with inventive CDNs in different concentrations (0 μg/ml; 10 μg/ml; 20 μg/ml; 40 μg/ml) in medium (RPMI-1640, 2 mM L-glutamine, 1.5 g/I sodium bicarbonate, 4.5 g/I glucose, 10 mM HEPES, 1 mM sodium pyruvate, 10% FCS, 100 μg/ml Zeocin™, 110 μg/ml Normocin™, Pen-Strep 50 U/ml) for 24 hours at 37° C. in 5% CO2. The quantification was performed with SEAP detection reagent QUANTI-Blue™ (InvivoGen; catalogue number: rep-qb1; incubation time: 30 min at 37° C. in 5% CO2) by optical density (OD) determination at 625 nm.
(§1) Legend for Synthesis 5: THP1-Blue™ cells ((THP1-ISG); InvivoGen, catalogue number: thp-isg; concentration: 5×10^5/ml, 180 μl/well (96-well-plate) and THP1 Dual™ KO STING cells ((STING KO) InvivoGen, catalogue number: thpd-kostg; concentration: 5×10^5/ml, 180 μl/well (96-well-plate) were incubated with inventive CDNs (concentration 40 μg/ml each) in medium (RPMI-1640, 2 mM L-glutamine, 1.5 g/I sodium bicarbonate, 4.5 g/I glucose, 10 mM HEPES, 1 mM sodium pyruvate, 10% FCS, 100 μg/mL Zeocin™, 110 μg/mL Normocin™, Pen-Strep 50 U/mL) for 24 hours at 37° C. in 5% CO2. For incubations with THP1 Dual™ KO STING cells, 10 μg/ml of blasticidin were added to the medium. Quantification was performed with SEAP detection reagent QUANTI-Blue™ (InvivoGen; catalogue number: rep-qb1; incubation time: 15 min at 37° C. in 5% CO2) by optical density (OD) determination at 625 nm.
Cell line: THP1-Blue™ cells (InvivoGen, catalogue number: thp-isg) are derived from THP1 cells. THP1-Blue™ cells in a cell culture dish are stimulated by the administration of a CDN according to the invention or a buffer control.
In these genetically modified cells, the gene for secreted embryonic alkaline phosphatase (SEAP) is under the control of an interferon-β promoter.
After stimulation of the cells with an inventive CDN, the supernatant of the cell culture was removed and the enzymatic activity of SEAP was measured photometrically in a colorimetric assay by measuring the extinction at 625 nm (optical density; OD 625 nm).
Administration of an inventive CDN induces an increase in the activity of SEAP, which is a measure of the activity of the STING signalling pathway.

THP1 Dual KO STING cells = assay: SEAP reporter assay in THP1 Dual KO STING control cells; format: cell-based, human; settings: 40 μg/ml, 24 hours (FIG. 2)
Protocol: as §1

[1] = Lipophilicity determination by gradient HPLC (log k′g); format: physicochemical; settings: HPLC gradient 1, RP-18, triethylammonium phosphate buffer pH 6.5 / methanol (ion pair chromatography)
Protocol: Gradient 1: Stationary phase: Polygosil 60-10, RP-18; 250×4 mm (Macherey & Nagel, DOren, Germany). Mobile phase A: 10 ml 1 M triethylammonium phosphate buffer (TEAP), pH 6.5+990 ml methanol. Mobile phase B: 10 ml 1 M TEAP, pH 6.5+990 ml H2O. Time program: 0 min: 100% B; 60 min: 100% A; 65 min: 100% A; 70 min: 100% B; 90 min: 100% B. Flow rate: 1.0 ml/min.
The octanol/water coefficient Log P is the commonly accepted indicator for the expected property of a given chemical entity to pass cellular membranes by passive diffusion. However, its practical determination for polar compounds such as multiply charged nucleotides is difficult in reality. Often, the information about membrane permeability must be received by fragmental analysis or other calculations.
Given this fact, an established HPLC method is used here, which is based on the measurement of retention on a reversed phase column^7. In contrast to Log P, this method yields the indicator log k′g, which allows for a ranking of different nucleotides of the same charge according to their lipophilicity.
Since CDNs are twofold negatively charged molecules which are only very insufficiently retarded on a reversed phase HPLC column, the determinations were performed in presence of the lipophilic triethylammonium cation (ion pair chromatography).
According to the established method^7 HPLC gradient 1 was used for the determination of lipophilicity.

Row | Compound | SEAP activity, elevated OD at 625 nm, concentration-dependent (STING signalling pathway) | effect of elevated OD at 625 nm in STING knock out cells (THP1 Dual KO STING cells) | log k′g ([1]; listed as 29, MI2) | log k′g ([1]; listed as 98, MI1) | log k′g [1]
1 | Nc1nc2c(ncn2[C@@H]2O[C@@H]3COP(=O)(S)OC4C(O)[C@H](n5cnc6cc(Cl)c(Cl)cc65)O[C@@H]4COP(=O)(S)OC2C3O)c(=O)[nH]1 (single isomer, unassigned) [Compound 29, MI2, Cyclic (guanosine-(2′→5′)-monophosphorothioate-5,6-dichlorobenzimidazole riboside-(3′→5′)-monophosphorothioate)] | positive | no longer observed | 2.403 | – | –
2 | Nc1ncnc2c1ncn2[C@@H]1O[C@@H]2COP(=O)(S)OC3C(O)[C@@H](COP(=O)(S)OC2C1O)O[C@H]3n1cnc2ccccc21 (single isomer, unassigned) [Compound 98, MI1, Cyclic (adenosine-(3′→5′)-monophosphorothioate-benzimidazole riboside-(2′→5′)-monophosphorothioate)] | positive | no longer observed | – | 1.524 | –
3 | Nc1ncnc2c1ncn2[C@@H]1O[C@@H]2COP(=O)(O)OC3C(O)[C@H](n4cnc5ccccc54)O[C@@H]3COP(=O)(O)OC2C1F (stereo partly drawn) [Compound 79, cyclic (2′-fluoro-2′-deoxyadenosine-(3′ −> 5′)-monophosphate-benzimidazole riboside-(3′ −> 5′)-monophosphate)] | positive | no longer observed | – | – | 1.322

Source: patent publication US11001605B2, “Cyclic dinucleotides containing benzimidazole, method for the production of same, and use of same to activate stimulator of interferon genes (sting)-dependent signaling pathways” (BIOLOG LIFE SCIENCE INSTITUTE GmbH & Co. KG, priority 2016, dated 2021)
